In the NIST ThermoML archive (doi:10.1016/j.jct.2007.07.002):
± gives the expanded uncertainty stated by the source.

Conditions: Gas, double Helmholtz acoustic resonator

N [ammonia]
Conditions | kinematic viscosity [m2/s] | speed of sound [m/s]
300 K, 223.53 kPa | 6.47e-06 ± 1.4e-07 | 431 ± 0.26
300 K, 259.87 kPa | 5.47e-06 ± 3.2e-07 | 429.55 ± 0.26
300 K, 329.51 kPa | 4.32e-06 ± 5.2e-08 | 428.07 ± 0.26
300 K, 361.99 kPa | 3.95e-06 ± 7.2e-08 | 426.77 ± 0.26
300 K, 447.86 kPa | 3.14e-06 ± 3.8e-08 | 424.67 ± 0.26
300 K, 465.77 kPa | 3.02e-06 ± 5.4e-08 | 423.73 ± 0.26
300 K, 568.68 kPa | 2.45e-06 ± 2.9e-08 | 421.02 ± 0.25
300 K, 569.79 kPa | 2.45e-06 ± 4.4e-08 | 420.63 ± 0.25
300 K, 676.75 kPa | 2.03e-06 ± 2.4e-08 | 417.61 ± 0.25
300 K, 692.8 kPa | 1.98e-06 ± 5.6e-08 | 416.7 ± 0.25
300 K, 802.37 kPa | 1.71e-06 ± 2.6e-08 | 413.01 ± 0.25
300 K, 802.82 kPa | 1.7e-06 ± 2e-08 | 413.38 ± 0.25
315 K, 250.83 kPa | 6.41e-06 ± 7.8e-08 | 441.42 ± 0.27
315 K, 378.83 kPa | 4.19e-06 ± 6.8e-08 | 438.52 ± 0.26
315 K, 506.43 kPa | 3.08e-06 ± 3.7e-08 | 435.46 ± 0.26
315 K, 661.04 kPa | 2.34e-06 ± 2.8e-08 | 431.69 ± 0.26
315 K, 791.02 kPa | 1.92e-06 ± 2.3e-08 | 428.35 ± 0.26
315 K, 938.74 kPa | 1.59e-06 ± 1.9e-08 | 424.43 ± 0.26
315 K, 1080.9 kPa | 1.36e-06 ± 1.6e-08 | 420.46 ± 0.25
315 K, 1285 kPa | 1.13e-06 ± 1.4e-08 | 414.39 ± 0.25
330 K, 308.27 kPa | 5.77e-06 ± 1.5e-07 | 450.9 ± 0.27
330 K, 473.84 kPa | 3.68e-06 ± 4.4e-08 | 447.68 ± 0.27
330 K, 664.29 kPa | 2.58e-06 ± 3.1e-08 | 443.84 ± 0.27
330 K, 822.59 kPa | 2.06e-06 ± 2.5e-08 | 440.54 ± 0.27
330 K, 977.41 kPa | 1.71e-06 ± 2.1e-08 | 437.21 ± 0.26
330 K, 1142.1 kPa | 1.44e-06 ± 1.7e-08 | 433.54 ± 0.26
330 K, 1294.8 kPa | 1.25e-06 ± 1.5e-08 | 430.01 ± 0.26
330 K, 1480.5 kPa | 1.08e-06 ± 1.3e-08 | 425.54 ± 0.26
330 K, 1640.8 kPa | 9.57e-07 ± 1.2e-08 | 421.5 ± 0.25
330 K, 1792 kPa | 8.66e-07 ± 1e-08 | 417.52 ± 0.25
330 K, 1945.8 kPa | 7.91e-07 ± 9.5e-09 | 413.28 ± 0.25
345 K, 297.74 kPa | 6.5e-06 ± 7.8e-08 | 461.31 ± 0.28
345 K, 504.54 kPa | 3.78e-06 ± 4.5e-08 | 457.91 ± 0.28
345 K, 708.88 kPa | 2.67e-06 ± 3.2e-08 | 454.47 ± 0.27
345 K, 914.14 kPa | 2.04e-06 ± 2.5e-08 | 450.88 ± 0.27
345 K, 1123.2 kPa | 1.64e-06 ± 2e-08 | 447.09 ± 0.27
345 K, 1332.1 kPa | 1.36e-06 ± 1.6e-08 | 443.17 ± 0.27
345 K, 1537 kPa | 1.16e-06 ± 1.4e-08 | 439.19 ± 0.26
345 K, 1744.6 kPa | 1e-06 ± 1.2e-08 | 435.01 ± 0.26
345 K, 1955.1 kPa | 8.8e-07 ± 1.1e-08 | 430.58 ± 0.26
345 K, 2315.6 kPa | 7.21e-07 ± 8.7e-09 | 422.55 ± 0.25
345 K, 2530 kPa | 6.5e-07 ± 7.8e-09 | 417.46 ± 0.25
345 K, 2769 kPa | 5.84e-07 ± 7e-09 | 411.45 ± 0.25
360 K, 242.7 kPa | 8.74e-06 ± 1.1e-07 | 471.71 ± 0.28
360 K, 453.28 kPa | 4.68e-06 ± 8.2e-08 | 468.86 ± 0.28
360 K, 661.35 kPa | 3.16e-06 ± 3.8e-08 | 465.91 ± 0.28
360 K, 865.15 kPa | 2.39e-06 ± 2.9e-08 | 462.91 ± 0.28
360 K, 1069.7 kPa | 1.9e-06 ± 2.3e-08 | 459.84 ± 0.28
360 K, 1277.8 kPa | 1.57e-06 ± 1.9e-08 | 456.62 ± 0.27
360 K, 1481.2 kPa | 1.34e-06 ± 1.6e-08 | 453.38 ± 0.27
360 K, 1690.7 kPa | 1.16e-06 ± 1.4e-08 | 449.97 ± 0.27
360 K, 1894.8 kPa | 1.02e-06 ± 1.2e-08 | 446.53 ± 0.27
360 K, 2277.4 kPa | 8.28e-07 ± 9.9e-09 | 439.83 ± 0.27
360 K, 2480.7 kPa | 7.49e-07 ± 9e-09 | 436.1 ± 0.26
360 K, 2738.8 kPa | 6.66e-07 ± 8e-09 | 431.2 ± 0.26
360 K, 3050.5 kPa | 5.85e-07 ± 7e-09 | 424.97 ± 0.26
360 K, 3365.4 kPa | 5.19e-07 ± 6.2e-09 | 418.3 ± 0.25
375 K, 260.57 kPa | 1.01e-05 ± 3.8e-06 | 480.64 ± 1.5
375 K, 483.31 kPa | 4.9e-06 ± 8e-07 | 478.26 ± 0.4
375 K, 684.74 kPa | 3.42e-06 ± 2.2e-07 | 475.65 ± 0.29
375 K, 897.66 kPa | 2.57e-06 ± 6e-08 | 473 ± 0.28
375 K, 1130.7 kPa | 1.96e-06 ± 6.8e-08 | 469.93 ± 0.28
375 K, 1341.7 kPa | 1.63e-06 ± 4.2e-08 | 467.14 ± 0.28
375 K, 1583.8 kPa | 1.37e-06 ± 1.6e-08 | 463.89 ± 0.28
375 K, 1793.4 kPa | 1.2e-06 ± 2e-08 | 461.01 ± 0.28
375 K, 2026.3 kPa | 1.04e-06 ± 1.4e-08 | 457.7 ± 0.28
375 K, 2290.4 kPa | 9.12e-07 ± 1.1e-08 | 453.87 ± 0.27
375 K, 2599.9 kPa | 7.94e-07 ± 1.2e-08 | 449.23 ± 0.27
375 K, 2933.1 kPa | 6.9e-07 ± 8.3e-09 | 444.04 ± 0.27
375 K, 3140.5 kPa | 6.38e-07 ± 8.2e-09 | 440.69 ± 0.27
375 K, 3379.2 kPa | 5.88e-07 ± 9e-09 | 436.74 ± 0.26
